Patent publication US11384069B2, “Diphenylaminopyrimidine compound for inhibiting kinase activity” (Shenzhen TargetRx, Inc., priority 2018, dated 2022)

How the values were obtained:
BaF3-EpoR-JAK2 cells = assay: Cytotoxicity assay, BaF3-EpoR-JAK2 cells (CellTiter-Glo); format: cell-based; conditions: 72 h; 3 days incubation, 1 ng/ml IL-3, CellTiter-Glo
Procedure: The inhibitory effects of example compounds on the activity of BaF3-EpoR-JAK2 and BaF3-EpoR-JAK2/V617F cells were determined.
Materials and reagents: RPMI-1640 medium (GIBCO, Cat. No. A10491-01), fetal bovine serum (GIBCO, Cat. No. 10099-141), antibiotics (GIBCO, Cat. No. 10010-031), IL-3 (CST, Cat. No. 8923SF), phosphate buffer solution PBS (GIBCO, Cat. No. 10010-0312), penicillin-streptomycin (GIBCO, Cat. No. 15140-122);
Cell lines: BaF3-EpoR-JAK2 cells (Pharmaron), BaF3-EpoR-JAK2/V617F cells (Pharmaron), live cell assay kit CellTiter-Glo4 (Promega, Cat. No. G7572), 96-well black-wall clear flat-bottom cell culture plate (Corning, Cat. No. 3340).
(§1) Assay method: 1. Preparation of cell plates. BaF3-EpoR-JAK2 cells and BaF3-EpoR-JAK2/V617F cells were seeded in 96-well plates, respectively, and 1 ng/ml IL-3 was added to Ba/F3 cells. The cell plates were placed in a carbon dioxide incubator for overnight culture. 2. The test compounds were dissolved in DMSO and subjected to 3-fold gradient dilution, 9 compound concentrations were obtained in duplicate. 3. Treatments of Cells with Compounds. The compounds were transferred to cell plates, and the starting concentration of the compounds is 10 μM. The cell plates were incubated in a carbon dioxide incubator for 3 days. 4. Detection. A CellTiter-Glo reagent was added to the cell plates and incubated for 30 minutes at room temperature to stabilize the luminescence signal. Reading was obtained using a PerkinElmer Envision multi-label analyzer.

[1] = system: BaF3-EpoR-JAK2/V617F cells; assay: Cytotoxicity assay, BaF3-EpoR-JAK2/V617F cells (CellTiter-Glo); format: cell-based; conditions: 72 h; 3 days incubation, 1 ng/ml IL-3, CellTiter-Glo
Procedure: as §1, with “BaF3-EpoR-JAK2 cells and BaF3-EpoR-JAK2/V617F cells were seeded in 96-well plates, respectively, and 1 ng/ml IL-3 was added to Ba/F3 cells.” left out

[2] = Metabolic stability evaluation, rat liver microsome experiment; format: in vitro ADME; conditions: liver microsomes, pH 7.4, 1 μM compound, 0.5 mg/mL protein, 37° C.; for half-life at 1 μM: read-out: Rat liver microsome experiment t1/2
Procedure: (§2) Microsomal experiment: human liver microsomes: 0.5 mg/mL, Xenotech; rat liver microsomes: 0.5 mg/mL, Xenotech; mouse liver microsomes: 0.5 mg/mL, Xenotech; coenzyme (NADPH/NADH): 1 mM, Sigma Life Science; magnesium chloride: 5 mM, 100 mM phosphate buffer (pH 7.4).
(§3) Preparation of a stock solution: A certain amount of the powder of the example compounds was accurately weighed and dissolved in DMSO to a 5 mM concentration.
(§4) Preparation of phosphate buffer (100 mM, pH 7.4): 150 mL of a pre-prepared 0.5 M potassium dihydrogen phosphate and 700 mL of a pre-prepared 0.5 M dipotassium hydrogen phosphate were mixed. The mixture was then adjusted to pH 7.4 with a 0.5 M dipotassium hydrogen phosphate solution. The mixture was diluted 5-fold with ultrapure water before use, and magnesium chloride was added to obtain a phosphate buffer (100 mM) containing 100 mM potassium phosphate, 3.3 mM magnesium chloride, and a pH of 7.4.
(§5) A solution of NADPH regeneration system (containing 6.5 mM NADP, 16.5 mM G-6-P, 3 U/mL G-6-P D, 3.3 mM magnesium chloride) was prepared and placed on wet ice before use.
(§6) Preparation of a stop solution: an acetonitrile solution containing 50 ng/mL propranolol hydrochloride and 200 ng/mL tolbutamide (internal standard). 25057.5 μL of phosphate buffer (pH 7.4) was added into a 50 mL centrifuge tube, 812.5 μL of human liver microsomes, rat liver microsomes and mouse liver microsomes were then added into the 50 mL centrifuge tube, respectively, and the mixtures were mixed evenly to obtain liver microsome dilutions with a protein concentration of 0.625 mg/mL. Incubation of samples: The stock solutions of the corresponding compounds were diluted to 0.25 mM with an aqueous solution containing 70% acetonitrile, respectively, and used as working solutions ready for use. 398 μL of dilutions of human liver microsomes or rat liver microsomes or mouse liver microsome were added to 96-well incubation plates (N=2), and then 2 μL of 0.25 mM working solutions were added and mixed, respectively.
(§7) Determination of metabolic stability: 300 μL of a pre-cooled stop solution was added to each well of a 96-well deep well plate and placed on ice as a stop plate. The 96-well incubation plate and the NADPH regeneration system were placed in a 37° C. water bath, shaken at 100 rpm, and pre-incubated for 5 min. 80 μL of an incubation solution was taken from each well of the incubation plate and added to the stop plate, mixed evenly, and replenished with 20 μL of NADPH regeneration system solution as a 0 min sample. 80 μL of NADPH regeneration system solution was then added to each well of the incubation plate to start the reaction, and timing was started. […] 100 μL of the reaction solution was taken at 10, 30, and 90 min after reaction, respectively, added to the stop plate, and vortexed for 3 minutes to terminate the reaction. The stop plate was centrifuged for 10 min at 5000×g at 4° C. 100 μL of the supernatant was added to a 96-well plate to which 100 μL of distilled water was previously added, mixed evenly, and analyzed by LC-MS/MS.
(§8) Data analysis: The peak areas of the corresponding compounds and internal standard were detected by LC-MS/MS system, and the ratio of the peak areas of the compounds to the internal standard was calculated.

[3] = Metabolic stability evaluation, mouse liver microsome experiment; format: in vitro ADME; conditions: liver microsomes, pH 7.4, 1 μM compound, 0.5 mg/mL protein, 37° C.; for half-life at 1 μM: read-out: Mouse liver microsome experiment t1/2
Procedure: as §2, §3, §4, §5, §6, §7, §8

[4] = Metabolic stability evaluation, human liver microsome experiment; format: in vitro ADME; conditions: liver microsomes, pH 7.4, 1 μM compound, 0.5 mg/mL protein, 37° C.; for half-life at 1 μM: read-out: Human liver microsome experiment t1/2
Procedure: as §2, §3, §4, §5, §6, §7, §8

[5] = Rat pharmacokinetic experiment; format: in vivo; conditions: male Sprague-Dawley rats, single dose 3 mg/kg intravenously, 10 mg/kg orally
Procedure: 6 male Sprague-Dawley rats (7-8 weeks old, and weighted approximately 210 g) were divided into 2 groups with 3 rats in each group. The rats were intravenously or orally administered a single dose of compound (3 mg/kg intravenously, 10 mg/kg orally) to compare pharmacokinetic differences.
The rats were raised on standard food and water. Fasting was started 16 hours before the test. The drug was dissolved with PEG400 and dimethyl sulfoxide. The blood samples were collected from eyelids at the time points of 0.083 hours, 0.25 hours, 0.5 hours, 1 hour, 2 hours, 4 hours, 6 hours, 8 hours, 12 hours, and 24 hours after administration.
Rats were briefly anesthetized after inhalation of diethyl ether and 300 μL of blood sample was collected from the eyelids into test tubes. There was 30 μL of 1% heparin salt solution in the test tube. Tubes were dried at 60° C. overnight before use. After the blood sample was collected at the last time point, the rats were sacrificed after ether anesthesia.
Immediately after the collection of the blood sample, the test tube was gently inverted at least 5 times to ensure sufficient mixing and then placed on ice. […] The concentration of the compound disclosed herein in plasma was determined by LC-MS/MS. The pharmacokinetic parameters were calculated based on the drug concentration in blood of each animal at different time points.

Row | SMILES | microsomal CLint at 1 μM [2] [µL/min/mg] | half-life at 1 μM [2] [min] | microsomal CLint at 1 μM [3] [µL/min/mg] | half-life at 1 μM [3] [min] | microsomal CLint at 1 μM [4] [µL/min/mg] | half-life at 1 μM [4] [min] | Oral availability [5] [%] | IC50 (BaF3-EpoR-JAK2 cells) [nM] | IC50 [1] [nM]
1 | [2H]C([2H])([2H])C(C)(NS(=O)(=O)c1cccc(Nc2nc(Nc3ccc(OCCN4CCCC4)cc3)ncc2C)c1)C([2H])([2H])[2H] [Compound T-3, 3-((5-methyl-2-((4-(2-(pyrrolidin-1-yl)ethoxy)phenyl)amino)pyrimidin-4-yl)amino)-N-(2-methylpropan-2-yl-1,1,1,3,3,3-d6)benzenesulfonamide] | 80.4 | 17.2 | 206 | 6.7 | – | – | – | 604 | 244
2 | [2H]C([2H])([2H])C(NS(=O)(=O)c1cccc(Nc2nc(Nc3ccc(OCCN4CCCC4)cc3)ncc2C)c1)(C([2H])([2H])[2H])C([2H])([2H])[2H] [Compound T-4, 3-((5-methyl-2-((4-(2-(pyrrolidin-1-yl)ethoxy)phenyl)amino)pyrimidin-4-yl)amino)-N-(2-(methyl-d3)propan-2-yl-1,1,1,3,3,3-d6)benzenesulfonamide] | 76.6 | 18.1 | 194 | 7.1 | – | – | – | 587 | 238
3 | [2H]C1([2H])N(CCOc2ccc(Nc3ncc(C)c(Nc4cccc(S(=O)(=O)NC(C)(C)C)c4)n3)cc2)C([2H])([2H])C([2H])([2H])C1([2H])[2H] [Compound T-5, N-(tert-butyl)-3-((5-methyl-2-((4-(2-(pyrrolidin-1-yl-d8)ethoxy)phenyl)amino)pyrimidin-4-yl)amino)benzenesulfonamide] | 77 | 18 | 158 | 8.8 | 11.5 | 121 | 7.48 | 690 | 269

Further lines, with some results ahead:

Row | microsomal CLint at 1 μM [2] [µL/min/mg] | half-life at 1 μM [2] [min] | microsomal CLint at 1 μM [3] [µL/min/mg] | half-life at 1 μM [3] [min] | microsomal CLint at 1 μM [4] [µL/min/mg] | half-life at 1 μM [4] [min] | Oral availability [5] [%] | SMILES | IC50 (BaF3-EpoR-JAK2 cells) [nM] | IC50 [1] [nM]
4 | – | – | 174 | 8 | – | – | – | [2H]c1nc(Nc2ccc(OCCN3CCCC3)cc2)nc(Nc2cccc(S(=O)(=O)NC(C)(C)C)c2)c1C([2H])([2H])[2H] [Compound T-2, N-(tert-butyl)-3-((5-(methyl-d3)-2-((4-(2-(pyrrolidin-1-yl)ethoxy)phenyl)amino)pyrimidin-4-yl-6-d)amino)benzenesulfonamide] | 725 | 196
5 | 81.3 | 17 | 238 | 5.8 | 12.5 | 111 | 7.24 | Cc1cnc(Nc2ccc(OCCN3CCCC3)cc2)nc1Nc1cccc(S(=O)(=O)NC(C)(C)C)c1 [Fedratinib, N-(tert-butyl)-3-((5-methyl-2-((4-(2-(pyrrolidin-1-yl)ethoxy)phenyl)amino)pyrimidin-4-yl)amino)benzenesulfonamide, reference compound] | 653 | 211
6 | 73.9 | 18.7 | 157 | 8.8 | 6.8 | 203 | – | [2H]C([2H])(Oc1ccc(Nc2ncc(C)c(Nc3cccc(S(=O)(=O)NC(C)(C)C)c3)n2)cc1)C([2H])([2H])N1CCCC1 [Compound T-1, N-(tert-butyl)-3-((5-methyl-2-((4-(2-(pyrrolidin-1-yl)ethoxy-1,1,2,2-d4)phenyl)amino)pyrimidin-4-yl)amino)benzenesulfonamide] | 536 | 206
